Legend:
[1] = target: T1, recombinant MEN1 protein and fluorescein-labeled MLL4-43 peptide (Homo sapiens, UniProt O00255); test: Primary fluorescence polarization assay of MEN1 / MLL4-43 interaction inhibition; format: binding; settings: MEN1 10 nM, MLL4-43 0.5 nM, 1 hour at room temperature
T1 construct: purchased Creativebiomart MEN1-35H
T1 sequence (O00255 1-610): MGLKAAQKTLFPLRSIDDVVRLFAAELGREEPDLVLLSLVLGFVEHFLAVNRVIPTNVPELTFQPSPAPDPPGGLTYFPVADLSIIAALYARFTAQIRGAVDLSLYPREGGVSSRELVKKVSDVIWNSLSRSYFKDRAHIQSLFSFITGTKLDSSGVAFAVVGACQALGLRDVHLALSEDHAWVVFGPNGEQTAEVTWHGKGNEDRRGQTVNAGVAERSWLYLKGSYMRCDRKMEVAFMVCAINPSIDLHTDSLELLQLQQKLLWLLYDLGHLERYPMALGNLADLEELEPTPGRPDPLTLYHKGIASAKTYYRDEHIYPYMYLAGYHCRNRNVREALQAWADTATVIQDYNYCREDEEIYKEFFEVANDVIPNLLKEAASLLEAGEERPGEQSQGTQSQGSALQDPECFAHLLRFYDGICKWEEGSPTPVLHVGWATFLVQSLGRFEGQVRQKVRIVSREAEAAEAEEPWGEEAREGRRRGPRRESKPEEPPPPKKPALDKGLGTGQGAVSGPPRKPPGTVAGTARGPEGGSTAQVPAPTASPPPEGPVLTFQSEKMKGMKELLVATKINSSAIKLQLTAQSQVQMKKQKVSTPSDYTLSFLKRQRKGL
Experimental: Compound activity was determined using recombinant MEN1 protein (Creativebiomart, Cat #MEN1-35H) and a custom fluorescein-labeled MLL4-43 peptide (Eton Bioscience Inc.). Interaction between MEN1 and MLL4-43 in the presence of compounds was determined by fluorescence polarization assay using a Microplate Reader ClarioStar Plus. The reaction was carried out in assay buffer (50 mM TRIS-HCl PH 7.4-7.6, 50 mM NaCl, 1 mM DTT, 0.1 mg/ml BSA). The compounds were dispensed on a 384 well Diamond Well Plate (Axigen, Cat #P-384-120 SQ-C—S) using the Biomek FX liquid handling system at 100× solutions of compounds in DMSO. 2× MEN1 mix (final concentration of MEN1 10 nM) was prepared in Assay buffer and 10 μl of mixture per well was added into 384w white Reaction plate with NBS(Corning, Cat #4513). 10 μl of Assay buffer w/o MENI was used for negative control. Plates were centrifuged for 1 min at 100 g. Next step the Compounds were added to Reaction plate using Biomek station via following steps: 3 μl of 100× compounds (in DMSO) were mixed thoroughly with 27 μl Assay Buffer, then 2 μl of this mixture was added to Reaction plate with 10 μl of MENI mix. Plates were centrifuged for 1 min at 100 g and incubated for 20 min at room temperature. Next 8 μL of MLL4-43 peptide per well was added to final concentration of MLL 0.5 nM. Plates were incubated for 1 hour at room temperature. Then fluorescence polarization was measured using Microplate Reader.

MV4-11 = MV4-11 Cellular Growth Inhibition Assay (CellTiter-Glo); format: cell-based; settings: Homo sapiens, 168 h, MV4-11 cells, 7 days of incubation
Experimental: (§1) HEK293 (Institute of Cytology Russian Academy of Science), MV4-11 (ATCC, CRL-9591), MOLM-13 (AcceGen, ABC-TC517S) were seeded at a density of 500 cells per well (HEK293) and 2000 cells per well (MV4-11, MOLM-13) in a 384-well clear bottom plate (Greiner Cat #781090) in 45 μl total volume of DMEM (PanEco, Cat #C420, Russia) or RPMI (PanEco, Cat #C330, Russia) with 10% FBS(HyClone Cat #SV30160.03). HEK293 were allowed to adhere overnight at 37° C., 5% CO2. 500× compounds solutions in DMSO (Sigma Cat #D2650) were prepared into Cmpnds plate (Diamond Well Plate, Axigen, Cat #P-384-120 SQ-C—S) and DMSO only control was included. 1 μl of 500× compounds (Cmpnds plate) was added to 49 μl of culture medium into Dilution plate (Diamond Well Plate, Axigen, Cat #P-384-120 SQ-C—S), mixed and then 5 μl of 10× compounds solutions were transferred to cells followed by centrifugation at 100 g for 1 min. Final DMSO concentration was 0.2%. After 3 days of incubation, 10 μl of 1× compounds were added to cells. After 7 days of incubation, 12 μl of CellTiter-Glo (Promega, CAT #G7572) were added to the cells, plate was centrifuged at 100 g for 1 min and luminescence signal was measured using Microplate Reader (CLARIOStar).

MOLM-13 = MOLM-13 Cellular Growth Inhibition Assay (CellTiter-Glo); format: cell-based; settings: Homo sapiens, 168 h, MOLM-13 cells, 7 days of incubation
Experimental: as §1

[2] = HEK293 Cellular Growth Inhibition Assay (CellTiter-Glo); format: cell-based; settings: human, HEK293 cells, 7 days of incubation
Experimental: as §1

| SMILES | EC50 [1] | CC50 (MV4-11) | CC50 (MOLM-13) | CC50 at 7 days [2] |
| --- | --- | --- | --- | --- |
| CCS(=O)(=O)NC12CC(CN3CCC4(CC3)CN(c3ncnc5ccc(CC(F)(F)F)cc35)C4)(C1)C2 [Compound 74, N-(3-((2-(6-(2,2,2-trifluoroethyl)quinazolin-4-yl)-2,7-diazaspiro[3.5]nonan-7-yl)methyl)bicyclo[1.1.1]pentan-1-yl)ethanesulfonamide] | 1 to 5 µM | > 10 µM | 10 to 20 µM | 30 to 50 µM |
| O=C1COc2cc(CN3CCC4(CC3)CN(c3ncnc5ccc(CC(F)(F)F)cc35)C4)ccc2N1 [Compound 75, 7-((2-(6-(2,2,2-trifluoroethyl)quinazolin-4-yl)-2,7-diazaspiro[3.5]nonan-7-yl)methyl)-2H-benzo[b][1,4]oxazin-3(4H)-one] | 0.075 to 0.5 µM | 2.5 to 5 µM | 1 to 5 µM | 15 to 30 µM |
| CCS(=O)(=O)N[C@H]1CC[C@H](CNc2ccc(CN3CCC4(CC3)CN(c3ncnc5ccc(CC(F)(F)F)cc35)C4)cc2)CC1 [Compound 79, N-((1R,4R)-4-(((4-((2-(6-(2,2,2-trifluoroethyl)quinazolin-4-yl)-2,7-diazaspiro[3.5]nonan-7-yl)methyl)phenyl)amino)methyl)cyclohexyl)ethanesulfonamide] | 0.075 to 0.5 µM | > 10 µM | 1 to 5 µM | ≤ 5 µM |
| FC(F)(F)Cc1ccc2ncnc(N3CC4(CCN(Cc5cccc6[nH]ccc56)CC4)C3)c2c1 [Compound 83, 4-(7-((1H-indol-4-yl)methyl)-2,7-diazaspiro[3.5]nonan-2-yl)-6-(2,2,2-trifluoroethyl)quinazoline] | ≤ 0.075 µM | 1 to 2.5 µM | 5 to 10 µM | 5 to 15 µM |
| FC(F)(F)Cc1ccc2ncnc(N3CC4(CCN(Cc5ccc6cc[nH]c6c5)CC4)C3)c2c1 [Compound 89, 4-(7-((1H-indol-6-yl)methyl)-2,7-diazaspiro[3.5]nonan-2-yl)-6-(2,2,2-trifluoroethyl)quinazoline] | ≤ 0.075 µM | ≤ 1 µM | 1 to 5 µM | ≤ 5 µM |
| FC(F)(F)Cc1ccc2ncnc(N3CC4(CCN(Cc5ccc6[nH]ccc6c5)CC4)C3)c2c1 [Compound 90, 4-(7-((1H-indol-5-yl)methyl)-2,7-diazaspiro[3.5]nonan-2-yl)-6-(2,2,2-trifluoroethyl)quinazoline] | 0.5 to 1 µM | 2.5 to 5 µM | 5 to 10 µM | 5 to 15 µM |
| Nc1ccc(CN2CCC3(CC2)CN(c2ncnc4ccc(CC(F)(F)F)cc24)C3)cc1C(=O)NCCN1CCOCC1 [Compound 91, 2-amino-N-(2-morpholinoethyl)-5-((2-(6-(2,2,2-trifluoroethyl)quinazolin-4-yl)-2,7-diazaspiro[3.5]nonan-7-yl)methyl)benzamide] | 1 to 5 µM | 2.5 to 5 µM | 10 to 20 µM | 5 to 15 µM |
| CCS(=O)(=O)N1Cc2ccc(CN3CCC4(CC3)CN(c3ncnc5ccc(CC(F)(F)F)cc35)C4)cc2C1 [Compound 94, 4-(7-((2-(ethylsulfonyl)isoindolin-5-yl)methyl)-2,7-diazaspiro[3.5]nonan-2-yl)-6-(2,2,2-trifluoroethyl)quinazoline] | 0.075 to 0.5 µM | 2.5 to 5 µM | 5 to 10 µM | 5 to 15 µM |
